Columns and labels:
Assay type in all cases: binding
[1] = target: T1, FGR (Homo sapiens, UniProt P09769); assay: KINOMEscan; details: read-out: %Ctrl @ 10000nM
T1 construct: purchased DiscoverX KINOMEscan

[2] = target: T2, WEE2 (Homo sapiens, UniProt P0C1S8); assay: KINOMEscan; details: read-out: %Ctrl @ 10000nM
T2 construct: DNA label for qPCR (T7 phage fusion or DNA tag); purchased DiscoverX scanMAX; host or cells: E. coli BL21-derived (T7 phage) or HEK-293

[3] = target: T3, RET (Homo sapiens, UniProt P07949); assay: KINOMEscan; details: read-out: %Ctrl @ 10000nM
T3 construct: purchased DiscoverX KINOMEscan

[4] = target: T4, SIK (Homo sapiens, UniProt P57059); assay: KINOMEscan; details: read-out: %Ctrl @ 10000nM
T4 construct: purchased DiscoverX KINOMEscan

[5] = target: T5, BRAF (Homo sapiens, UniProt P15056); assay: KINOMEscan; details: read-out: %Ctrl @ 10000nM
T5 construct: purchased DiscoverX KINOMEscan

[6] = target: T6, AXL (Homo sapiens, UniProt P30530); assay: KINOMEscan; details: read-out: %Ctrl @ 10000nM
T6 construct: purchased DiscoverX KINOMEscan

[7] = target: T7, CLK1 (Homo sapiens, UniProt P49759); assay: KINOMEscan; details: read-out: %Ctrl @ 10000nM
T7 construct: purchased DiscoverX KINOMEscan

[8] = target: T8, RIPK1 (Homo sapiens, UniProt Q13546); assay: KINOMEscan; details: read-out: %Ctrl @ 10000nM
T8 construct: purchased DiscoverX KINOMEscan

[9] = target: T9, EGFR(G719C) (Homo sapiens, UniProt P00533, G719C); assay: KINOMEscan; details: read-out: %Ctrl @ 10000nM
T9 construct: purchased DiscoverX KINOMEscan

[10] = target: T10, HIPK1 (Homo sapiens, UniProt Q86Z02); assay: KINOMEscan; details: read-out: %Ctrl @ 10000nM
T10 construct: purchased DiscoverX KINOMEscan

[11] = target: T11, ULK2 (Homo sapiens, UniProt Q8IYT8); assay: KINOMEscan; details: read-out: %Ctrl @ 10000nM
T11 construct: DNA label for qPCR (T7 phage fusion or DNA tag); purchased DiscoverX scanMAX; host or cells: E. coli BL21-derived (T7 phage) or HEK-293

[12] = target: T12, DCAMKL1 (Homo sapiens, UniProt O15075); assay: KINOMEscan; details: read-out: %Ctrl @ 10000nM
T12 construct: purchased DiscoverX KINOMEscan

[13] = target: T13, TYK2(JH2domain-pseudokinase) (Homo sapiens, UniProt P29597); assay: KINOMEscan; details: read-out: %Ctrl @ 10000nM
T13 construct: TYK2(JH2domain-pseudokinase); DNA label for qPCR (T7 phage fusion or DNA tag); purchased DiscoverX scanMAX; host or cells: E. coli BL21-derived (T7 phage) or HEK-293

[14] = target: T14, LOK (Homo sapiens, UniProt O94804); assay: KINOMEscan; details: read-out: %Ctrl @ 10000nM
T14 construct: purchased DiscoverX KINOMEscan

[15] = target: T15, ABL1(F317L)-phosphorylated (Homo sapiens, UniProt P00519, F317L); assay: KINOMEscan; details: read-out: %Ctrl @ 10000nM
T15 construct: purchased DiscoverX KINOMEscan

[16] = target: T16, RAF1 (Homo sapiens, UniProt P04049); assay: KINOMEscan; details: read-out: %Ctrl @ 10000nM
T16 construct: purchased DiscoverX KINOMEscan

[17] = target: T17, RIOK3 (Homo sapiens, UniProt O14730); assay: KINOMEscan; details: read-out: %Ctrl @ 10000nM
T17 construct: purchased DiscoverX KINOMEscan

[18] = target: T18, STK35 (Homo sapiens, UniProt Q8TDR2); assay: KINOMEscan KdELECT
T18 construct: DNA tag for qPCR (T7 phage fusion or DNA label); purchased DiscoverX KdELECT; host or cells: E. coli BL21-derived (T7 phage) or HEK-293

[19] = target: T19, SBK1 (Homo sapiens, UniProt Q52WX2); assay: KINOMEscan; details: read-out: %Ctrl @ 10000nM
T19 construct: purchased DiscoverX KINOMEscan

[20] = target: T20, SGK2 (Homo sapiens, UniProt Q9HBY8); assay: KINOMEscan; details: read-out: %Ctrl @ 10000nM
T20 construct: purchased DiscoverX KINOMEscan

[21] = target: T21, RSK1(Kin.Dom.2-C-terminal) (Homo sapiens, UniProt Q15418); assay: KINOMEscan; details: read-out: %Ctrl @ 10000nM
T21 construct: RSK1(Kin.Dom.2-C-terminal); purchased DiscoverX KINOMEscan

[22] = target: T22, IKK-beta (Homo sapiens, UniProt O14920); assay: KINOMEscan; details: read-out: %Ctrl @ 10000nM
T22 construct: purchased DiscoverX KINOMEscan

[23] = target: T23, MAP4K5 (Homo sapiens, UniProt Q9Y4K4); assay: KINOMEscan; details: read-out: %Ctrl @ 10000nM
T23 construct: purchased DiscoverX KINOMEscan

[24] = target: T24, FES (Homo sapiens, UniProt P07332); assay: KINOMEscan; details: read-out: %Ctrl @ 10000nM
T24 construct: purchased DiscoverX KINOMEscan

[25] = target: T25, STK36 (Homo sapiens, UniProt Q9NRP7); assay: KINOMEscan; details: read-out: %Ctrl @ 10000nM
T25 construct: purchased DiscoverX KINOMEscan

[26] = target: T26, TYK2(JH1domain-catalytic) (Homo sapiens, UniProt P29597); assay: KINOMEscan; details: read-out: %Ctrl @ 10000nM
T26 construct: TYK2(JH1domain-catalytic); DNA label for qPCR (T7 phage fusion or DNA tag); purchased DiscoverX scanMAX; host or cells: E. coli BL21-derived (T7 phage) or HEK-293

[27] = target: T27, FLT1 (Homo sapiens, UniProt P17948); assay: KINOMEscan; details: read-out: %Ctrl @ 10000nM
T27 construct: purchased DiscoverX KINOMEscan

[28] = target: T28, ARK5 (Homo sapiens, UniProt O60285); assay: KINOMEscan; details: read-out: %Ctrl @ 10000nM
T28 construct: purchased DiscoverX KINOMEscan

[29] = target: T29, ABL1(H396P)-phosphorylated (Homo sapiens, UniProt P00519, H396P); assay: KINOMEscan; details: read-out: %Ctrl @ 10000nM
T29 construct: purchased DiscoverX KINOMEscan

[30] = target: T30, AKT1 (Homo sapiens, UniProt P31749); assay: KINOMEscan; details: read-out: %Ctrl @ 10000nM
T30 construct: purchased DiscoverX KINOMEscan

[31] = target: T31, BLK (Homo sapiens, UniProt P51451); assay: KINOMEscan; details: read-out: %Ctrl @ 10000nM
T31 construct: purchased DiscoverX KINOMEscan

[32] = target: T32, CLK4 (Homo sapiens, UniProt Q9HAZ1); assay: KINOMEscan; details: read-out: %Ctrl @ 10000nM
T32 construct: purchased DiscoverX KINOMEscan

[33] = target: T33, ABL1(F317I)-nonphosphorylated (Homo sapiens, UniProt P00519, F317I); assay: KINOMEscan; details: read-out: %Ctrl @ 10000nM
T33 construct: purchased DiscoverX KINOMEscan

[34] = target: T34, MINK (Homo sapiens, UniProt Q8N4C8); assay: KINOMEscan; details: read-out: %Ctrl @ 10000nM
T34 construct: purchased DiscoverX KINOMEscan

[35] = target: T35, GRK3 (Homo sapiens, UniProt P35626); assay: KINOMEscan KdELECT
T35 construct: DNA tag for qPCR (T7 phage fusion or DNA label); purchased DiscoverX KdELECT; host or cells: E. coli BL21-derived (T7 phage) or HEK-293

[36] = target: T36, WNK3 (Homo sapiens, UniProt Q9BYP7); assay: KINOMEscan; details: read-out: %Ctrl @ 10000nM
T36 construct: DNA label for qPCR (T7 phage fusion or DNA tag); purchased DiscoverX scanMAX; host or cells: E. coli BL21-derived (T7 phage) or HEK-293

[37] = target: T37, ZAK (Homo sapiens, UniProt Q9NYL2); assay: KINOMEscan; details: read-out: %Ctrl @ 10000nM
T37 construct: purchased DiscoverX scanMAX; host or cells: E. coli BL21-derived host (T7 phage) or HEK-293

[38] = target: T38, EPHB2 (Homo sapiens, UniProt P29323); assay: KINOMEscan; details: read-out: %Ctrl @ 10000nM
T38 construct: purchased DiscoverX KINOMEscan

T18 sequence (Q8TDR2 whole entry, the tested form may be a part): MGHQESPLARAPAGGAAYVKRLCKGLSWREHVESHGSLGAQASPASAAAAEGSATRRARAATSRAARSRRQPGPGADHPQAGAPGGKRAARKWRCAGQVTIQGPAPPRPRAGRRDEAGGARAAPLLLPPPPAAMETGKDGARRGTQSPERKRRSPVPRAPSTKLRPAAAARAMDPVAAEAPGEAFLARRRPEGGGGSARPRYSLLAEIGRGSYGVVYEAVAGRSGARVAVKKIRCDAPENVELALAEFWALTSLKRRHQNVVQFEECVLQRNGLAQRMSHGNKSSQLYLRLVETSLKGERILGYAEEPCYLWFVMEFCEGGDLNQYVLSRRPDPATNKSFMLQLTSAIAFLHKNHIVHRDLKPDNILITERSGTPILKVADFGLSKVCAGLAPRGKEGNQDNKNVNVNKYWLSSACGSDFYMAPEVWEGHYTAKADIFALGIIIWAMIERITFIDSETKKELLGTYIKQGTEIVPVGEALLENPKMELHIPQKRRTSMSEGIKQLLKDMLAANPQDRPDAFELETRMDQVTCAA
T7 sequence (P49759 whole entry): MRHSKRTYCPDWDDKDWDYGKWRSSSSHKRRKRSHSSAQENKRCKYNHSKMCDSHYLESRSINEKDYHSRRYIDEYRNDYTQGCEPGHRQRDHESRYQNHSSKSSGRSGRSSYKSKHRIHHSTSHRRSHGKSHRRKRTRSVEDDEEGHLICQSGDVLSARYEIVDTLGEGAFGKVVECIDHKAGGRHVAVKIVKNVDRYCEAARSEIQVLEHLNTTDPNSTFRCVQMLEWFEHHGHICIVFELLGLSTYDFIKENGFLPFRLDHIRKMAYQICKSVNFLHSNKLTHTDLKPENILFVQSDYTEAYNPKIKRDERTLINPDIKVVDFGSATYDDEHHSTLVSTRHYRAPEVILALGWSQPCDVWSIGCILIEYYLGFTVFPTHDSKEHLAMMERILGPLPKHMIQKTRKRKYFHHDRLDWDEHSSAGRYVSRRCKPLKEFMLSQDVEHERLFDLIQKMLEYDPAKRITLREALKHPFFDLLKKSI
T11 sequence (Q8IYT8 whole entry, the tested form may be a part): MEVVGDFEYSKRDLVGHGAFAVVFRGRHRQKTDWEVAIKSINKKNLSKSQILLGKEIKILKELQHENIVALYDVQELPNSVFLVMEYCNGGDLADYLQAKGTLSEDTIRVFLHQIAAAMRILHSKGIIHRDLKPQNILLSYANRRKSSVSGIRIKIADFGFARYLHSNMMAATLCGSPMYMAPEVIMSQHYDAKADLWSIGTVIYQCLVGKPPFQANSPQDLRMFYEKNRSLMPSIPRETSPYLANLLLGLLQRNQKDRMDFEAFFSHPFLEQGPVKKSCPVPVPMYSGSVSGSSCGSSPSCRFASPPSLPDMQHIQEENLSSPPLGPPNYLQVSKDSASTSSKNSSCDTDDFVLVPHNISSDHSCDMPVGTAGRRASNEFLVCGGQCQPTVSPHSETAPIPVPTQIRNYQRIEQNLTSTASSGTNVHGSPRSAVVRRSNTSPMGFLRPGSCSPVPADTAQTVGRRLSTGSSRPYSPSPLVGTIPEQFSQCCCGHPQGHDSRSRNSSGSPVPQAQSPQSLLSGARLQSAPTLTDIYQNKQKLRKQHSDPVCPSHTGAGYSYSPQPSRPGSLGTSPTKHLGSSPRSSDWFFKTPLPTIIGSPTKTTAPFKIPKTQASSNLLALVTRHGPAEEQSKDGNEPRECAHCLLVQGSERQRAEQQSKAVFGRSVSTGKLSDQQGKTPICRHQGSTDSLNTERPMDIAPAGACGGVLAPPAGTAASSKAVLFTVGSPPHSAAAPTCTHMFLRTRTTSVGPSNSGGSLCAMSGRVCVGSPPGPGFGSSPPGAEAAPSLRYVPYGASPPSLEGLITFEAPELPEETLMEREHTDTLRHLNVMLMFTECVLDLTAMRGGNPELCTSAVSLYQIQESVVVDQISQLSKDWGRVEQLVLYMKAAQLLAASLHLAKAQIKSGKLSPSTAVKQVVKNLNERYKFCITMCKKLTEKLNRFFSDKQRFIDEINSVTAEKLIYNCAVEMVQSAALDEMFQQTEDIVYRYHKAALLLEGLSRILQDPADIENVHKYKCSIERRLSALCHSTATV
T3 sequence (P07949 29-1114): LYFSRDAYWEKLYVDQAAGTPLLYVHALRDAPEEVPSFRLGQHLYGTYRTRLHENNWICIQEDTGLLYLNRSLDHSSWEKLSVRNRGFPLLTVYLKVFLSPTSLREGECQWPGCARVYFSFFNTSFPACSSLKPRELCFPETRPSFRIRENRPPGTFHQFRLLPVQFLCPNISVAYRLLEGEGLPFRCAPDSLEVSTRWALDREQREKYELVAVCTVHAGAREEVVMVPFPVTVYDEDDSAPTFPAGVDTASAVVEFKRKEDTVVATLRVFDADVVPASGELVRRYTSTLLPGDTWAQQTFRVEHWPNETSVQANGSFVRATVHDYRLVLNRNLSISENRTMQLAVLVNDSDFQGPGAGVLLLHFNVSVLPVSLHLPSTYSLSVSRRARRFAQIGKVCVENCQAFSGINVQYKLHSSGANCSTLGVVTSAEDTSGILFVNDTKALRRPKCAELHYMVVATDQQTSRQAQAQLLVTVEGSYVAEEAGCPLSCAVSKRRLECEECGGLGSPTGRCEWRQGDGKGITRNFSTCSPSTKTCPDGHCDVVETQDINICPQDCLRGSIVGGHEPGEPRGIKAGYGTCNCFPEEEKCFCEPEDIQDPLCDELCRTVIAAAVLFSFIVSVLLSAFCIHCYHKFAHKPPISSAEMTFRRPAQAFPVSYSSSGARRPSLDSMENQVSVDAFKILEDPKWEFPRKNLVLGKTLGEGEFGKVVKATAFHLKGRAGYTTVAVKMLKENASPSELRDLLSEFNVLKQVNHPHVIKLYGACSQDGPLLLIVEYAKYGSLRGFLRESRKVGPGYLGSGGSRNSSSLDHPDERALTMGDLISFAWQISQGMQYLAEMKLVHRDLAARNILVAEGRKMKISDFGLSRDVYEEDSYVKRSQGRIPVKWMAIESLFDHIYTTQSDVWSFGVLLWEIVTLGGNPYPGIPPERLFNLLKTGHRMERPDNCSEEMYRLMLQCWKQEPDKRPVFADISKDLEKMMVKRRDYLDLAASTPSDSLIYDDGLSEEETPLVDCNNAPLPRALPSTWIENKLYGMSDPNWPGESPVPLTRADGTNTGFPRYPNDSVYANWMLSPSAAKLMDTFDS
T34 sequence (Q8N4C8 whole entry): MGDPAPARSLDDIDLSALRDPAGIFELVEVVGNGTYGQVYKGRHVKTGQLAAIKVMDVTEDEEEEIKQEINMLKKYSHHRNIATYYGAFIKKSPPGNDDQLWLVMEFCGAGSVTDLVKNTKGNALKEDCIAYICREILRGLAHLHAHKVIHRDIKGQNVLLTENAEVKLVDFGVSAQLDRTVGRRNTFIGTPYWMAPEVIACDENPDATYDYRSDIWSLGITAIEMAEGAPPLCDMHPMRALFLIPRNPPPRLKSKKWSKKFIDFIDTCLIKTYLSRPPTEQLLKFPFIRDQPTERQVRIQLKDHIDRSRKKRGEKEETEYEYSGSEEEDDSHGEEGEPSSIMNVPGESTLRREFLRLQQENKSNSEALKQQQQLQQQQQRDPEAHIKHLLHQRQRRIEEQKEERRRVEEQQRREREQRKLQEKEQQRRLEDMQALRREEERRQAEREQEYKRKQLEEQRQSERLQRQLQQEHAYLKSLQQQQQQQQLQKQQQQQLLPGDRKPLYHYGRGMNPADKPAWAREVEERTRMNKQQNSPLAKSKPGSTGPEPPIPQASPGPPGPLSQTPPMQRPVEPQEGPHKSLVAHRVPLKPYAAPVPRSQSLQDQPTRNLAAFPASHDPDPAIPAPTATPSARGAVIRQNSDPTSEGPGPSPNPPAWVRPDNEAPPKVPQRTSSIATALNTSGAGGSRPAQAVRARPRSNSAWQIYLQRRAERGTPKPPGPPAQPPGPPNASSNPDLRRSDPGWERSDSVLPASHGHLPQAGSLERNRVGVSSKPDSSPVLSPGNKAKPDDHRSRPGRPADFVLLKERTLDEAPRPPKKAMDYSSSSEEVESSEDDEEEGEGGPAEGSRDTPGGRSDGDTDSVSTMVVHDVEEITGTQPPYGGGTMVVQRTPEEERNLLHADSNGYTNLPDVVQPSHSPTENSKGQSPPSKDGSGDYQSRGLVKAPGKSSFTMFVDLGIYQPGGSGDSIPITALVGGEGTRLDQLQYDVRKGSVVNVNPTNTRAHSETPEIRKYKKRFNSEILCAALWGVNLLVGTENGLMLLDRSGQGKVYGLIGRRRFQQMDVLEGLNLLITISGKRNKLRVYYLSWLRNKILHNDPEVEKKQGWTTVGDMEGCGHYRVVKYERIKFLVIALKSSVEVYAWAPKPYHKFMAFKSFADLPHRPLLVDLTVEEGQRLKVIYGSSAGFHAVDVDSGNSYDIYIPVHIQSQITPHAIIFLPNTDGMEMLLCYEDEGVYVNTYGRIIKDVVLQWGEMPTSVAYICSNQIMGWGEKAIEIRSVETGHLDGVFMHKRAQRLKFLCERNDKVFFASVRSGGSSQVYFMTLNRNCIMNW
T1 sequence (P09769 whole entry): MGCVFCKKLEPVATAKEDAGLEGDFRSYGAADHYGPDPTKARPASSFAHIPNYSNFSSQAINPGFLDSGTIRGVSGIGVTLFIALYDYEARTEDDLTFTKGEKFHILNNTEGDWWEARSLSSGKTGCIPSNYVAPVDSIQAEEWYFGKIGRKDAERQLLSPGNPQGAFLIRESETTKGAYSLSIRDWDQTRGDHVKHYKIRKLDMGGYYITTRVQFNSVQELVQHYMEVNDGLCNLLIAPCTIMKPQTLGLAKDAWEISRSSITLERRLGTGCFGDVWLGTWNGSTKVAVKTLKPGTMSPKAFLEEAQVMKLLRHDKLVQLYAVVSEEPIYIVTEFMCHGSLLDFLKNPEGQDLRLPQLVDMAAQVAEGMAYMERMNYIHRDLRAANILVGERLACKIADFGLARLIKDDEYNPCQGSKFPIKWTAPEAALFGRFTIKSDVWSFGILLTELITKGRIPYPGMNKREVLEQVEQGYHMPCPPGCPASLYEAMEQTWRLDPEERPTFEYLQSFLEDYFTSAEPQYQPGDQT

## CC(C)c1ccc(CC(=O)N2CCN(c3ccc(C#N)nn3)CC2)cc1 [PZ-2891, 6-(4-(2-(4-isopropylphenyl)acetyl)piperazin-1-yl)pyridazine-3-carbonitrile]
[1]
  remaining binding at 10 µM: 96%
[2]
  remaining binding at 10 µM: 99%
[3]
  remaining binding at 10 µM: 74%
[4]
  remaining binding at 10 µM: 83%
[5]
  remaining binding at 10 µM: 100%
[6]
  remaining binding at 10 µM: 73%
[7]
  remaining binding at 10 µM: 75%
[8]
  remaining binding at 10 µM: 98%
[9]
  remaining binding at 10 µM: 100%
[10]
  remaining binding at 10 µM: 61%
[11]
  remaining binding at 10 µM: 86%
[12]
  remaining binding at 10 µM: 80%
[13]
  remaining binding at 10 µM: 100%
[14]
  remaining binding at 10 µM: 86%
[15]
  remaining binding at 10 µM: 100%
[16]
  remaining binding at 10 µM: 85%
[17]
  remaining binding at 10 µM: 100%
[18]; STK35
  Kd: > 30 µM
[18]; STK35 Replicate ID = 1
  Kd: > 30 µM
[18]; STK35 Replicate ID = 2
  Kd: > 30 µM
[19]
  remaining binding at 10 µM: 62%
[20]
  remaining binding at 10 µM: 64%
[21]
  remaining binding at 10 µM: 64%
[22]
  remaining binding at 10 µM: 100%
[23]
  remaining binding at 10 µM: 100%
[24]
  remaining binding at 10 µM: 94%
[25]
  remaining binding at 10 µM: 84%
[26]
  remaining binding at 10 µM: 67%
[27]
  remaining binding at 10 µM: 100%
[28]
  remaining binding at 10 µM: 94%
[29]
  remaining binding at 10 µM: 76%
[30]
  remaining binding at 10 µM: 98%
[31]
  remaining binding at 10 µM: 87%
[32]
  remaining binding at 10 µM: 98%
[33]
  remaining binding at 10 µM: 77%
[34]
  remaining binding at 10 µM: 74%
[35]
  Kd: > 30 µM
[36]
  remaining binding at 10 µM: 100%
[37]
  remaining binding at 10 µM: 88%
[38]
  remaining binding at 10 µM: 82%

Source: publication PMC6199309, “A therapeutic approach to pantothenate kinase associated neurodegeneration” (Nature Communications, 2018)
